Laboratory results reported in patent US8518945B2, “Pyrrolopyrazine kinase inhibitors” (Hoffmann-La Roche Inc., priority 2010, dated 2013).

Each compound was assayed against T1, h-jak3(810-1124) (JAK3: Recombinant human kinase domain) (Homo sapiens, UniProt P52333) (assay: Determination of IC50 of Janus Kinase (JAK) inhibition: JAK3 radioactive end-point 33P-ATP kinase assay). Settings: no additive; ATP 1.5 uM, peptide 50 uM, 20 minutes, room temperature; read-out: Ic50 h-jak3(810-1124)-sf9-c: no additive.
T1 construct: jak3(810- 1124)-sf9-c; made in house; host or cells: Sf9
T1 sequence (P52333 810-1124): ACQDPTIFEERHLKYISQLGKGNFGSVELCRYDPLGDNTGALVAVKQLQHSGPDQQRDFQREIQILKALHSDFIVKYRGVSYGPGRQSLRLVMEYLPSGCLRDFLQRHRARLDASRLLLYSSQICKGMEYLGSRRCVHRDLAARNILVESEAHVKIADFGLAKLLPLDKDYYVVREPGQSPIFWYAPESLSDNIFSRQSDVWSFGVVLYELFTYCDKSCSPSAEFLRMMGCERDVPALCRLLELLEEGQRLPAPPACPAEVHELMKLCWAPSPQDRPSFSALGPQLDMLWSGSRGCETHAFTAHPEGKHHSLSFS
Type: biochemical
`COc1ccnc2cc(-c3cnc4[nH]cc(C(=O)N[C@H](C)C(=O)N5CC(C#N)C5)c4n3)sc12` [Example I-103, 2-(7-Methoxy-thieno[3,2-b]pyridin-2-yl)-5H-pyrrolo[2,3-b]pyrazine-7-carboxylic acid [(R)-2-(3-cyano-azetidin-1-yl)-1-methyl-2-oxo-ethyl]-amide] was tested, and the IC50 was 8.34 nM. Compound `CCn1cc(-c2cnc3[nH]cc(C(=O)N[C@@H](CC(F)(F)F)C(=O)N4CCC(C#N)CC4)c3n2)cn1` [Example I-105, 2-(1-Ethyl-1H-pyrazol-4-yl)-5H-pyrrolo[2,3-b]pyrazine-7-carboxylic acid [(S)-1-(4-cyano-piperidine-1-carbonyl)-3,3,3-trifluoro-propyl]-amide] has an IC50 of 2260 nM. With `CCn1cc(-c2cnc3[nH]cc(C(=O)N[C@H](CC(F)(F)F)C(=O)N4CCC(C#N)CC4)c3n2)cn1` [Example I-106, 2-(1-Ethyl-1H-pyrazol-4-yl)-5H-pyrrolo[2,3-b]pyrazine-7-carboxylic acid [(R)-1-(4-cyano-piperidine-1-carbonyl)-3,3,3-trifluoro-propyl]-amide] the IC50 was 2.61 nM. `N#CC1CCN(C(=O)[C@H](NC(=O)c2c[nH]c3ncc(-c4cn(C5CCCC5)nn4)nc23)C2CC2)CC1` [Example I-107, 2-(1-Cyclopentyl-1H-[1,2,3]triazol-4-yl)-5H-pyrrolo[2,3-b]pyrazine-7-carboxylic acid [(R)-2-(4-cyano-piperidin-1-yl)-1-cyclopropyl-2-oxo-ethyl]-amide] showed an IC50 of 6.57 nM. With `N#CC1CCN(C(=O)[C@H](NC(=O)c2c[nH]c3ncc(-c4cn(-c5ccccc5)nn4)nc23)C2CC2)CC1` [Example I-108, 2-(1-Phenyl-1H-[1,2,3]triazol-4-yl)-5H-pyrrolo[2,3-b]pyrazine-7-carboxylic acid [(R)-2-(4-cyano-piperidin-1-yl)-1-cyclopropyl-2-oxo-ethyl]-amide] the IC50 was 6.05 nM. `C[C@@H](NC(=O)c1c[nH]c2ncc(-c3cccc(N4CCCC4)c3)nc12)C(=O)N1CC(C#N)C1` [Example I-109, 2-(3-Pyrrolidin-1-yl-phenyl)-5H-pyrrolo[2,3-b]pyrazine-7-carboxylic acid [(R)-2-(3-cyano-azetidin-1-yl)-1-methyl-2-oxo-ethyl]-amide] gave an IC50 of 0.61 nM. `CNC(=O)c1cccc(-c2cnc3[nH]cc(C(=O)N[C@H](C)C(=O)N4CC(C#N)C4)c3n2)c1` [Example I-110, 2-(3-Methylcarbamoyl-phenyl)-5H-pyrrolo[2,3-b]pyrazine-7-carboxylic acid [(R)-2-(3-cyano-azetidin-1-yl)-1-methyl-2-oxo-ethyl]-amide] was tested, and the IC50 was 1.22 nM. `CC(C)NC(=O)c1cccc(-c2cnc3[nH]cc(C(=O)N[C@H](C)C(=O)N4CC(C#N)C4)c3n2)c1` [Example I-111, 2-(3-Isopropylcarbamoyl-phenyl)-5H-pyrrolo[2,3-b]pyrazine-7-carboxylic acid [(R)-2-(3-cyano-azetidin-1-yl)-1-methyl-2-oxo-ethyl]-amide] was tested, and the IC50 was 5.71 nM. Compound `C[C@@H](NC(=O)c1c[nH]c2ncc(-c3cccc(C(=O)NCC4CC4)c3)nc12)C(=O)N1CC(C#N)C1` [Example I-112, 2-[3-(Cyclopropylmethyl-carbamoyl)-phenyl]-5H-pyrrolo[2,3-b]pyrazine-7-carboxylic acid [(R)-2-(3-cyano-azetidin-1-yl)-1-methyl-2-oxo-ethyl]-amide] has an IC50 of 0.97 nM. With `C[C@@H](NC(=O)c1c[nH]c2ncc(-c3cc(C4=CCCC4)ccn3)nc12)C(=O)N1CC(C#N)C1` [Example I-113, 2-(4-Cyclopent-1-enyl-pyridin-2-yl)-5H-pyrrolo[2,3-b]pyrazine-7-carboxylic acid [(R)-2-(3-cyano-azetidin-1-yl)-1-methyl-2-oxo-ethyl]-amide] the IC50 was 3.71 nM. Compound `N#CC1CCN(C(=O)[C@H](NC(=O)c2c[nH]c3ncc(C4CC4)nc23)c2ccccc2)CC1` [Example I-114, 2-Cyclopropyl-5H-pyrrolo[2,3-b]pyrazine-7-carboxylic acid [(R)-2-(4-cyano-piperidin-1-yl)-2-oxo-1-phenyl-ethyl]-amide] has an IC50 of 16.3 nM. In the case of `CC(C)(C)[C@@H](NC(=O)c1c[nH]c2ncc(-c3ccccn3)nc12)C(=O)N1CCC(C#N)CC1` [Example I-115, 2-Pyridin-2-yl-5H-pyrrolo[2,3-b]pyrazine-7-carboxylic acid [(R)-1-(4-cyano-piperidine-1-carbonyl)-2,2-dimethyl-propyl]-amide], the IC50 is reported as 2.92 nM. For `N#CC1CCN(C(=O)[C@@H](CC2CC2)NC(=O)c2c[nH]c3ncc(C4CC4)nc23)CC1` [Example I-116, 2-Cyclopropyl-5H-pyrrolo[2,3-b]pyrazine-7-carboxylic acid [(R)-2-(4-cyano-piperidin-1-yl)-1-cyclopropylmethyl-2-oxo-ethyl]-amide], the IC50 was 2.73 nM. With `CC(C)(C)[C@@H](NC(=O)c1c[nH]c2ncc(-c3cnn(-c4ccc(F)cc4)c3)nc12)C(=O)N1CCC(C#N)CC1` [Example I-117, 2-[1-(4-Fluoro-phenyl)-1H-pyrazol-4-yl]-5H-pyrrolo[2,3-b]pyrazine-7-carboxylic acid [(R)-1-(4-cyano-piperidine-1-carbonyl)-2,2-dimethyl-propyl]-amide] the IC50 was 1.01 nM. For `CC(C)(C)[C@@H](NC(=O)c1c[nH]c2ncc(-c3cc(C(F)(F)F)ccn3)nc12)C(=O)N1CCC(C#N)CC1` [Example I-118, 2-(4-Trifluoromethyl-pyridin-2-yl)-5H-pyrrolo[2,3-b]pyrazine-7-carboxylic acid [(R)-1-(4-cyano-piperidine-1-carbonyl)-2,2-dimethyl-propyl]-amide], the IC50 was 6.05 nM. `CC(C)(C)[C@@H](NC(=O)c1c[nH]c2ncc(-c3cn(CC4CC4)cn3)nc12)C(=O)N1CCC(C#N)CC1` [Example I-119, 2-(1-Cyclopropylmethyl-1H-imidazol-4-yl)-5H-pyrrolo[2,3-b]pyrazine-7-carboxylic acid [(R)-1-(4-cyano-piperidine-1-carbonyl)-2,2-dimethyl-propyl]-amide] showed an IC50 of 2.74 nM. `CC(C)(C)[C@@H](NC(=O)c1c[nH]c2ncc(-c3cn(C4CCCC4)cn3)nc12)C(=O)N1CCC(C#N)CC1` [Example I-120, 2-(1-Cyclopentyl-1H-imidazol-4-yl)-5H-pyrrolo[2,3-b]pyrazine-7-carboxylic acid [(R)-1-(4-cyano-piperidine-1-carbonyl)-2,2-dimethyl-propyl]-amide] showed an IC50 of 3.7 nM. `N#CC1CCN(C(=O)[C@H](NC(=O)c2c[nH]c3ncc(-c4cn(C5CCCC5)cn4)nc23)C2CC2)CC1` [Example I-121, 2-(1-Cyclopentyl-1H-imidazol-4-yl)-5H-pyrrolo[2,3-b]pyrazine-7-carboxylic acid [(R)-2-(4-cyano-piperidin-1-yl)-1-cyclopropyl-2-oxo-ethyl]-amide] showed an IC50 of 1.67 nM. `CC(C)(C)[C@@H](NC(=O)c1c[nH]c2ncc(-c3cn(CC(F)(F)F)cn3)nc12)C(=O)N1CCC(C#N)CC1` [Example I-122, 2-[1-(2,2,2-Trifluoro-ethyl)-1H-imidazol-4-yl]-5H-pyrrolo[2,3-b]pyrazine-7-carboxylic acid [(R)-1-(4-cyano-piperidine-1-carbonyl)-2,2-dimethyl-propyl]-amide] gave an IC50 of 4.05 nM. Compound `C[C@@H](NC(=O)c1c[nH]c2ncc(-c3cccc(N4CCC(C)(C)C4)c3)nc12)C(=O)N1CC(C#N)C1` [Example I-123, 2-[3-(3,3-Dimethyl-pyrrolidin-1-yl)-phenyl]-5H-pyrrolo[2,3-b]pyrazine-7-carboxylic acid [(R)-2-(3-cyano-azetidin-1-yl)-1-methyl-2-oxo-ethyl]-amide] has an IC50 of 0.62 nM. `CC[C@H](C)[C@@H](NC(=O)c1c[nH]c2ncc(C3CC3)nc12)C(=O)N1CCC(C#N)CC1` [Example I-124, 2-Cyclopropyl-5H-pyrrolo[2,3-b]pyrazine-7-carboxylic acid [(1R,2S)-1-(4-cyano-piperidine-1-carbonyl)-2-methyl-butyl]-amide] showed an IC50 of 1.37 nM. For `C[C@@H](NC(=O)c1c[nH]c2ncc(-c3cccc(N4C[C@H]5C[C@H]5C4)c3)nc12)C(=O)N1CC(C#N)C1` [Example I-126, 2-[(1S,5R)-3-(3-Aza-bicyclo[3.1.0]hex-3-yl)-phenyl]-5H-pyrrolo[2,3-b]pyrazine-7-carboxylic acid [(R)-2-(3-cyano-azetidin-1-yl)-1-methyl-2-oxo-ethyl]-amide], the IC50 was 0.57 nM. With `COc1ccnc(-c2cnc3[nH]cc(C(=O)N[C@@H](C(=O)N4CCC(C#N)CC4)C(C)(C)C)c3n2)c1` [Example I-127, 2-(4-Methoxy-pyridin-2-yl)-5H-pyrrolo[2,3-b]pyrazine-7-carboxylic acid [(R)-1-(4-cyano-piperidine-1-carbonyl)-2,2-dimethyl-propyl]-amide] the IC50 was 3.56 nM. In the case of `CC(C)(C)[C@@H](NC(=O)c1c[nH]c2ncc(-c3ccc(C(F)(F)F)cc3)nc12)C(=O)N1CCC(C#N)CC1` [Example I-128, 2-(4-Trifluoromethyl-phenyl)-5H-pyrrolo[2,3-b]pyrazine-7-carboxylic acid [(R)-1-(4-cyano-piperidine-1-carbonyl)-2,2-dimethyl-propyl]-amide], the IC50 is reported as 2.81 nM. In the case of `N#CC1CCN(C(=O)[C@H](NC(=O)c2c[nH]c3ncc(-c4cc(OCC5CC5)ccn4)nc23)C2CC2)CC1` [Example I-129, 2-(4-Cyclopropylmethoxy-pyridin-2-yl)-5H-pyrrolo[2,3-b]pyrazine-7-carboxylic acid [(R)-2-(4-cyano-piperidin-1-yl)-1-cyclopropyl-2-oxo-ethyl]-amide], the IC50 is reported as 1.18 nM. With `CC(C)(C)[C@@H](NC(=O)c1c[nH]c2ncc(-c3cc(OC4CCCC4)ccn3)nc12)C(=O)N1CCC(C#N)CC1` [Example I-130, 2-(4-Cyclopentyloxy-pyridin-2-yl)-5H-pyrrolo[2,3-b]pyrazine-7-carboxylic acid [(R)-1-(4-cyano-piperidine-1-carbonyl)-2,2-dimethyl-propyl]-amide] the IC50 was 113 nM. `C[C@@H](NC(=O)c1c[nH]c2ncc(-c3cc(OCC4CC4)ccn3)nc12)C(=O)N1CC(C#N)C1` [Example I-131, 2-(4-Cyclopropylmethoxy-pyridin-2-yl)-5H-pyrrolo[2,3-b]pyrazine-7-carboxylic acid [(R)-2-(3-cyano-azetidin-1-yl)-1-methyl-2-oxo-ethyl]-amide] gave an IC50 of 2.58 nM.
